Measured values as given in ChEMBL document CHEMBL1156740, “A bivalent ligand (KMN-21) antagonist for mu/kappa heterodimeric opioid receptors” (Bioorg Med Chem Lett, 2009).
Calls of active or inactive are those of the source.

How the values were obtained:
Assay type in all cases: functional, cell-based
[1] = target: T1, Opioid receptors; mu & kappa (Homo sapiens) (UniProt P41145+P35372); assay: Antagonistic activity at mu/kappa opioid receptor expressed in HEK293 cells co-transfected with chimeric G-protein delta 6-Gqi4-myr assessed as inhibition of DAMGO-induced calcium release at 1 uM
[2] = target: Kappa-type opioid receptor (Homo sapiens) (UniProt P41145); assay: Antagonistic activity at kappa opioid receptor expressed in HEK293 cells co-transfected with chimeric G-protein delta 6-Gqi4-myr assessed as inhibition of U69593-induced calcium release at 1 uM
[3] = target: T1, Opioid receptors; mu & kappa (Homo sapiens); assay: Antagonistic activity at mu/kappa opioid receptor expressed in HEK293 cells co-transfected with chimeric G-protein delta 6-Gqi4-myr assessed as inhibition of U69593-induced calcium release at 1 uM
[4] = target: Mu-type opioid receptor (Homo sapiens) (UniProt P35372); assay: Antagonistic activity at mu opioid receptor expressed in HEK293 cells co-transfected with chimeric G-protein delta 6-Gqi4-myr assessed as inhibition of DAMGO-induced calcium release at 1 uM

Measured: Activity

Chain of Kappa-type opioid receptor (Homo sapiens) (P41145 whole entry): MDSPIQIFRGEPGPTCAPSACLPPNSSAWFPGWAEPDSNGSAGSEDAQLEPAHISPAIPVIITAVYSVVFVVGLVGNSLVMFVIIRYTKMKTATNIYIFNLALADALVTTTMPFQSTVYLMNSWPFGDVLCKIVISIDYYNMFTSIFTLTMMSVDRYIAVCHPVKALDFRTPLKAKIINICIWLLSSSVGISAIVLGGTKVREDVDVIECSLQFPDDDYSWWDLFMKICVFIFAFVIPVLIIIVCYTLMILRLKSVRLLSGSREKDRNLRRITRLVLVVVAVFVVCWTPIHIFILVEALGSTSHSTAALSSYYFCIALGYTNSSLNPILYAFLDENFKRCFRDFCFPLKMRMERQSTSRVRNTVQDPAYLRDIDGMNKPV
Chain of Mu-type opioid receptor (Homo sapiens) (P35372 whole entry): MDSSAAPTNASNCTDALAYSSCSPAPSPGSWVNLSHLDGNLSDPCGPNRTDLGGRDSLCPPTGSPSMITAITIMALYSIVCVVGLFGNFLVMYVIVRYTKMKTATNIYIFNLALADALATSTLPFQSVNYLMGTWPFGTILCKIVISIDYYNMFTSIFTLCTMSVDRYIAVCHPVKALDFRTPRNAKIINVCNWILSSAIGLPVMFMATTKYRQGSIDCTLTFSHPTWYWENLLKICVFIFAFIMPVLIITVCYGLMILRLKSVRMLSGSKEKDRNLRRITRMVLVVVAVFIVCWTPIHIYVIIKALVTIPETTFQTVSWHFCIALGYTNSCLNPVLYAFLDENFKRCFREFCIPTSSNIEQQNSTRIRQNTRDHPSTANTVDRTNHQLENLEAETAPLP
T1 sequence (P35372 whole entry, looked up): as the sequence (P35372 whole entry) above
T1 sequence (P41145 whole entry, looked up): as the sequence (P41145 whole entry) above

N=C(NCCCCCNC(=O)CNC(=O)CNC(=O)CCC(=O)NCC(=O)NCC(=O)N[C@H]1C[C@@H]2Oc3c(O)ccc4c3[C@@]23CCN(CC2CC2)[C@H](C4)[C@]3(O)C1)Nc1ccc2[nH]c3c(c2c1)C[C@@]1(O)[C@H]2Cc4ccc(O)c5c4[C@@]1(CCN2CC1CC1)[C@H]3O5
active: [1] | [2] | [3] | [4]

N=C(NCCCNC(=O)CNC(=O)CNC(=O)CCC(=O)NCC(=O)NCC(=O)N[C@H]1C[C@@H]2Oc3c(O)ccc4c3[C@@]23CCN(CC2CC2)[C@H](C4)[C@]3(O)C1)Nc1ccc2[nH]c3c(c2c1)C[C@@]1(O)[C@H]2Cc4ccc(O)c5c4[C@@]1(CCN2CC1CC1)[C@H]3O5
active: [1] | [2] | [3] | [4]

N=C(NCCCCNC(=O)CNC(=O)CNC(=O)CCC(=O)NCC(=O)NCC(=O)N[C@H]1C[C@@H]2Oc3c(O)ccc4c3[C@@]23CCN(CC2CC2)[C@H](C4)[C@]3(O)C1)Nc1ccc2[nH]c3c(c2c1)C[C@@]1(O)[C@H]2Cc4ccc(O)c5c4[C@@]1(CCN2CC1CC1)[C@H]3O5
active: [1] | [2] | [3] | [4]

N=C(NCCNC(=O)CNC(=O)CNC(=O)CCC(=O)NCC(=O)NCC(=O)N[C@H]1C[C@@H]2Oc3c(O)ccc4c3[C@@]23CCN(CC2CC2)[C@H](C4)[C@]3(O)C1)Nc1ccc2[nH]c3c(c2c1)C[C@@]1(O)[C@H]2Cc4ccc(O)c5c4[C@@]1(CCN2CC1CC1)[C@H]3O5
active: [1] | [2] | [3] | [4]
